Source: paper PMC10583239 (CPT: Pharmacometrics & Systems Pharmacology, 2023)
≈ marks a conversion by molar mass, not a printed value. Marks after values point to notes of the source that are not given here.

How the values were obtained:
BCRP = assay: MDCK‐BCRP apparent permeability; type: in vitro ADME, canine; details: dog
[1] = test system: Madin Darby canine kidney–breast cancer resistance protein (BCRP) cell lines; assay: MDCK‐BCRP apparent permeability; type: in vitro ADME; details: MDCK‐BCRP cell line
CYP1A2 = target: T1, CYP1A2 (Homo sapiens, UniProt P05177); assay: Metabolic stability in recombinant human CYP1A2 with NADPH; type: in vitro ADME; details: CYP1A2 share of CYP metabolism, scaled by abundance and ISEF
T1 sequence (P05177 1-516): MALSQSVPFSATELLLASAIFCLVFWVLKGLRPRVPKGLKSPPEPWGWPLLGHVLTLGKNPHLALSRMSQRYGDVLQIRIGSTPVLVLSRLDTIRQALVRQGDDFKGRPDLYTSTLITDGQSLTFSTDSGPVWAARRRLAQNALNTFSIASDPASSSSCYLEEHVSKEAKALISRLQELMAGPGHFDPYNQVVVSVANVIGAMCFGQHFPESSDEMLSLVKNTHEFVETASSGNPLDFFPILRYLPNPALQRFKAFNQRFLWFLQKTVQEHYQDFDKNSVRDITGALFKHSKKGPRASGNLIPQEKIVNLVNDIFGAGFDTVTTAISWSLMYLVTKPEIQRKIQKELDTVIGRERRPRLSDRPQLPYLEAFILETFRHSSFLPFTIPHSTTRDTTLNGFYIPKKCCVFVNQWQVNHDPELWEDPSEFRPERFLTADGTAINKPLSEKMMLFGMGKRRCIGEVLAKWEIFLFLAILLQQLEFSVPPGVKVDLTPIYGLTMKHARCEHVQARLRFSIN

recombinant human CYP2A6 = target: T2, recombinant human CYP2A6 (Homo sapiens, UniProt P11509); assay: Metabolic stability in recombinant human CYP2A6 with NADPH; type: in vitro ADME; details: CYP2A6 share of CYP metabolism, scaled by abundance and ISEF
T2 sequence (P11509 1-494): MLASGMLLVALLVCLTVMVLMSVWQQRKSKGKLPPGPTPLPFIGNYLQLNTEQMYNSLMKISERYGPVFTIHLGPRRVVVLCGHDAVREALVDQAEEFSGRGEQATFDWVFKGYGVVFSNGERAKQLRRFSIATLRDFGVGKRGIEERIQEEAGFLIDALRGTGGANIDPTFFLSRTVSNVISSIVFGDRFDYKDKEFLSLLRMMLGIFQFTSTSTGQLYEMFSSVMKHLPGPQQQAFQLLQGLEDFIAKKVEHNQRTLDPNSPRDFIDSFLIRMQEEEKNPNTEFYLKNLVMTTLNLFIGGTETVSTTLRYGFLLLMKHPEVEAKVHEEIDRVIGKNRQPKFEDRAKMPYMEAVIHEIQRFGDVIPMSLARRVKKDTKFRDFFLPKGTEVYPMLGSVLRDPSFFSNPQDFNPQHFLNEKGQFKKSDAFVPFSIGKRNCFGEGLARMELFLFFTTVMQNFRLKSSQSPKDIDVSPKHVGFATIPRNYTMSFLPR

CYP2C9 = CYP2C9 (Homo sapiens, UniProt P11712); assay: Metabolic stability in recombinant human CYP2C9 with NADPH; type: in vitro ADME; details: CYP2C9 share of CYP metabolism, scaled by abundance and ISEF
CYP2D6 = CYP2D6 (Homo sapiens, UniProt P10635); assay: Metabolic stability in recombinant human CYP2D6 with NADPH; type: in vitro ADME; details: CYP2D6 share of CYP metabolism, scaled by abundance and ISEF
CYP2C8 = target: T3, CYP2C8 (Homo sapiens, UniProt P10632); assay: CYP2C8 inhibition in human liver microsomes; type: in vitro ADME
T3 sequence (P10632 1-490): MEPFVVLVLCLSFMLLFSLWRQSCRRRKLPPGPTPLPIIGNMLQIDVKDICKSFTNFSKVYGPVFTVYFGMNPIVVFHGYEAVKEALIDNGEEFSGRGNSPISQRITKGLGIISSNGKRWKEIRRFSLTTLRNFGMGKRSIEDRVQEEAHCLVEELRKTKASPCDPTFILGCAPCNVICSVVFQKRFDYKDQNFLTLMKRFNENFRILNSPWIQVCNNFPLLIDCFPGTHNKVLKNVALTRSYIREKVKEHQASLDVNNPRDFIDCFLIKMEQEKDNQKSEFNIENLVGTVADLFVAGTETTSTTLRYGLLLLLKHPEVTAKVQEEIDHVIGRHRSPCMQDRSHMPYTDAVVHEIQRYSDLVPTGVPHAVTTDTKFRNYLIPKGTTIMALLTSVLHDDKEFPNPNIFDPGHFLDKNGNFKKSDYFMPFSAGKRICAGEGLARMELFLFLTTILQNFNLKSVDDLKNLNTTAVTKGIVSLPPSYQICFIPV

Aqueous phase solubility = type: physicochemical; details: pH 6.71, aqueous buffer
PBPK model parameters = assay: PBPK model parameters; parameters: species or system human
CYP2B6 = target: T4, CYP2B6 (Homo sapiens, UniProt P20813); details: main text summary
T4 sequence (P20813 1-491): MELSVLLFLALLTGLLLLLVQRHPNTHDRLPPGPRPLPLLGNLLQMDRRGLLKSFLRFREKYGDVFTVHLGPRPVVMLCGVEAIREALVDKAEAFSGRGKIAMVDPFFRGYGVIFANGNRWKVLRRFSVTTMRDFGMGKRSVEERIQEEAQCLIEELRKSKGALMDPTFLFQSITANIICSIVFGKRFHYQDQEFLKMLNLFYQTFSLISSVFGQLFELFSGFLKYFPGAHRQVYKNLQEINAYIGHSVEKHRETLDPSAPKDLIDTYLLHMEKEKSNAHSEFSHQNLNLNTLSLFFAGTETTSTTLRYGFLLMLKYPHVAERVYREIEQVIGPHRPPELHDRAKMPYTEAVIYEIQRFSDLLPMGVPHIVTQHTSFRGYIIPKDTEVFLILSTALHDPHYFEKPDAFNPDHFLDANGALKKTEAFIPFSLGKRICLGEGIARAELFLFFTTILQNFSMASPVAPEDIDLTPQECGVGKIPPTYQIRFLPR

CYP2C19 = CYP2C19 (Homo sapiens, UniProt P33261); assay: biochemical
[2] = Clinical DDI cohorts: pomotrelvir with ritonavir 100 mg
[3] = (20 mg PBI + 100 mg RTV, SD)/(100 mg POMO, SD)
[4] = (50 mg PBI + 100 mg RTV, Day1)/(100 mg POMO, SD)
[5] = (50 mg PBI + 100 mg RTV, Day5)/(100 mg POMO, SD), AUClast/Dose over AUCinf/Dose
[6] = (50 mg PBI + 100 mg RTV, Day10)/(100 mg POMO, SD), AUClast/Dose over AUCinf/Dose

Chain of CYP2C19 (P33261 whole entry): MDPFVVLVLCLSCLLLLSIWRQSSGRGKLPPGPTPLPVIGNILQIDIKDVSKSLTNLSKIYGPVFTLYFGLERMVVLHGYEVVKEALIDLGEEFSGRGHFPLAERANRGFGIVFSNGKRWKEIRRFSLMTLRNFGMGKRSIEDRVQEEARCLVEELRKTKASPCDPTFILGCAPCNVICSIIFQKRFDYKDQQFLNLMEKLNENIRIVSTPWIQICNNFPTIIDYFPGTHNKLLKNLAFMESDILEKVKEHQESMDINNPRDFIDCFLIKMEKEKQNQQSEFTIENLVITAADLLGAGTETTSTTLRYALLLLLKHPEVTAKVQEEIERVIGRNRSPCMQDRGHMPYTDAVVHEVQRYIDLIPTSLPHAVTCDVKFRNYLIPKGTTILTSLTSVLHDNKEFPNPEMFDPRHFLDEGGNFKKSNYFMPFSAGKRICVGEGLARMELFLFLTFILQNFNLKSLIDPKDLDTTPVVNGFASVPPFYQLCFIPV
Chain of CYP2D6 (P10635 whole entry): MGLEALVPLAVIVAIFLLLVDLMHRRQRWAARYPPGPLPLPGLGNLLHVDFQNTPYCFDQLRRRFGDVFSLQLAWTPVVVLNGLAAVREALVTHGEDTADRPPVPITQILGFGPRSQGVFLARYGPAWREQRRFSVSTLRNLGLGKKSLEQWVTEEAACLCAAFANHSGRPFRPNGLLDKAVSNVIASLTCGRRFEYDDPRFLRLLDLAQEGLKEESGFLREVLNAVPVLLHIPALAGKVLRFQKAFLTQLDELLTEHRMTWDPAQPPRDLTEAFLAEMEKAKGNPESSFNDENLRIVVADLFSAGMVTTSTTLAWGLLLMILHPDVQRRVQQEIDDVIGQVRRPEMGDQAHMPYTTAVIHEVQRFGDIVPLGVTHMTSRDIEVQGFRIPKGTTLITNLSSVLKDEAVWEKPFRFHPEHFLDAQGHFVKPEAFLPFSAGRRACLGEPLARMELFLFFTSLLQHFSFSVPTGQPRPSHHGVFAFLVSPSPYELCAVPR
Chain of CYP2C9 (P11712 whole entry): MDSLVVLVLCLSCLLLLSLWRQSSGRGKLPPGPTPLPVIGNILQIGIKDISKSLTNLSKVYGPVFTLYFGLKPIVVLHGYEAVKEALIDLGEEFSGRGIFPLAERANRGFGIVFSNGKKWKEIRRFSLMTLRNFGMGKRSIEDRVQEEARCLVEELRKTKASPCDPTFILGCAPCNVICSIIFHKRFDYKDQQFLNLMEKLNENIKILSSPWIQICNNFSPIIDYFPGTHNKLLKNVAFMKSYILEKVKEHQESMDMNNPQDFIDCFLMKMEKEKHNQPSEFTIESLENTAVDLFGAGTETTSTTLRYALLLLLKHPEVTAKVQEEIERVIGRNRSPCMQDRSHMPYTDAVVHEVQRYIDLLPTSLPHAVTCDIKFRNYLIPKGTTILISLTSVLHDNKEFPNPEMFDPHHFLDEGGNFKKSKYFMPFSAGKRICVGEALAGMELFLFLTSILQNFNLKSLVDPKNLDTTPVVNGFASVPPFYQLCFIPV

Papp (BCRP): 1.01 ×10⁻⁶ cm/s | efflux ratio [1]: large | Relative Contribution (fm) (CYP1A2): negligible | Relative Contribution (fm) (recombinant human CYP2A6): negligible | Relative Contribution (fm) (CYP2C9): negligible | Relative Contribution (fm) (CYP2D6): negligible | Ki (CYP2C8): 1.93 µM | inhibitory effect on CYP2C8 in vitro (in words) (CYP2C8; main text summary): weak to moderate inhibition | solubility (Aqueous phase solubility): 10 µg/mL (≈ 21.9 µM) | fmCYP3A4 (PBPK model parameters; PBPK input, set to match the ritonavir DDI study): 0.25 | CYP3A4 CLint (unbound) (PBPK model parameters; retrograde model from CL/F): 0.376 µL/min/pmol | fmCYP3A4 (PBPK model parameters; value to match the ritonavir DDI study): 25% | inhibitory effect on CYP2B6 in vitro (in words) (CYP2B6): No inhibitory effect | Ki (CYP2C19): 27.3 µM | change of dose‐normalized systemic exposure in the presence of ritonavir ([2]; 100 mg ritonavir, all cohorts and parameters): 0.92–1.54 fold | AUCinf/dose GMR (90% CI) [2, 3]: 0.92 (0.67, 1.26) | AUClast/dose GMR (90% CI) [2, 3]: 1.06 (0.68, 1.65) | Cmax/dose GMR (90% CI) [2, 3]: 0.97 (0.76, 1.22) | AUCinf/dose GMR (90% CI) [2, 4]: 1.54 (1.13, 2.1) | AUClast/dose GMR (90% CI) [2, 4]: 1.38 (1.08, 1.76) | Cmax/dose GMR (90% CI) [2, 4]: 1.46 (1.16, 1.84) | Cmax/dose GMR (90% CI) ([2]; (50 mg PBI + 100 mg RTV, Day5)/(100 mg POMO, SD)): 1.3 (0.9, 1.89) | AUCinf/dose GMR (90% CI) [2, 5]: 1.34 (0.96, 1.87) ^a | AUClast/dose GMR (90% CI) [2, 5]: 1.34 (0.96, 1.87) ^a | Cmax/dose GMR (90% CI) ([2]; (50 mg PBI + 100 mg RTV, Day10)/(100 mg POMO, SD)): 1.41 (1.05, 1.91) | AUCinf/dose GMR (90% CI) [2, 6]: 1.37 (1.05, 1.79) ^b | AUClast/dose GMR (90% CI) [2, 6]: 1.37 (1.05, 1.79) ^b | increase in exposure upon coadministration with ritonavir ([2]; single or multiple doses): < 50%
SMILES: N#C[C@H](C[C@@H]1CCCNC1=O)NC(=O)[C@H](CC1CC1)NC(=O)c1cc2cccc(Cl)c2[nH]1 [Pomotrelvir, pomotrelvir]
